Measurements taken from patent publication US12319655B2, “RAF kinase inhibitors and methods of use thereof” (Deciphera Pharmaceuticals, LLC, priority 2021, dated 2025).

Assays:
[1] = system: A375 cells; test: A375 Cell Proliferation Assay (1); type: cell-based; details: Homo sapiens, A-375
Method in brief: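 Resazurin fluorescence (excitation 540 nm, emission 600 nm, after a further 5-6 h) gave IC50s from triplicate compound dilution series.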

[2] = target: B-Raf kinase (SEQ. ID NO: 2) (Homo sapiens (Human), UniProt P15056); test: Biochemical Assay for B-Raf (1); details: Table J, assay version (1); read-out: BRAF (1) IC50
Method in brief: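 IC50 derived by four-parameter sigmoidal fit of percent inhibition, normalised to uninhibited and reference-inhibitor controls, using reaction rates over 4–5 h. Coupled spectrophotometric readout (NADH loss at 340 nm, 6 h, 30° C.); 1 mM ATP, 30.1 nM MEK, 0.13 nM B-Raf, pH 7.5 Tris buffer, 1% DMSO.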

[3] = target: C-Raf kinase (SEQ. ID NO: 3) (Homo sapiens (Human), UniProt P04049, Y340D/Y341D); test: Biochemical Assay for C-Raf (1); details: Table J, assay version (1); read-out: CRAF (1) IC50
Method in brief: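 IC50 values come from a four-parameter fit of percent inhibition, using the reaction rate over 4–5 h of a 6 h continuous 340 nm read at 30 °C. The enzyme mix was C-Raf 0.43 nM, MEK substrate 30.1 nM and ATP 1 mM, in a PK/LDH NADH-coupled format in Tris pH 7.5 with 1% DMSO.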

[4] = target: B-Raf (V600E) (SEQ. ID NO: 4) kinase (Homo sapiens (Human), UniProt P15056, V600E); test: Biochemical Assay for B-Raf (V600E) (1); details: Table J, BRAF V600E, assay version (1); read-out: BRAF VE (1) IC50
Method in brief: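 Serially diluted compounds tested against 0.03 nM enzyme with 30.1 nM MEK substrate and 1 mM ATP (Tris pH 7.5, 15 mM MgCl2), ATP use coupled to NADH loss via PK/LDH. A340 monitored continuously 6 h, 30 °C; IC50 fitted (four-parameter) from the 3–4 h rate versus no-compound and known-inhibitor controls.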

C-Raf kinase (SEQ. ID NO: 3), sequence (P04049 307-648 Y340D/Y341D): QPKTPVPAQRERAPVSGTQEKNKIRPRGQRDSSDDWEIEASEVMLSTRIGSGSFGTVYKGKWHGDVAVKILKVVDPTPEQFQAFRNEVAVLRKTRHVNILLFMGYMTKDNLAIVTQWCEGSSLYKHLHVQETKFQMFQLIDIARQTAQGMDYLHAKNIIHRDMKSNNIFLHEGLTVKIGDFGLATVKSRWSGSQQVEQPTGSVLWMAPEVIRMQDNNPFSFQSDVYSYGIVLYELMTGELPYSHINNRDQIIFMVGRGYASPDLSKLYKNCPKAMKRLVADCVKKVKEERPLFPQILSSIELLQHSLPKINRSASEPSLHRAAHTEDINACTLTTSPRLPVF
B-Raf (V600E) (SEQ. ID NO: 4) kinase, sequence (P15056 416-766 V600E): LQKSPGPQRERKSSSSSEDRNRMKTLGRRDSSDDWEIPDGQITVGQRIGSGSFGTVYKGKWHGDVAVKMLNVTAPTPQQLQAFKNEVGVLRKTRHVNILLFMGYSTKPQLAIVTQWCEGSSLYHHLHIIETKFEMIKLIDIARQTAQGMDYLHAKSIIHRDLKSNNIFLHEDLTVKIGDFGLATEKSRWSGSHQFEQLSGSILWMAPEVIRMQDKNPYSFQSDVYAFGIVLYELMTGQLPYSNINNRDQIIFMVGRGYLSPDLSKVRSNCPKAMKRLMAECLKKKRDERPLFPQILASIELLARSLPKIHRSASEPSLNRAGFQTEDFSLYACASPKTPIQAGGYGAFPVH
B-Raf kinase (SEQ. ID NO: 2), sequence (P15056 416-766): as the sequence (P15056 416-766 V600E) above, with E185V counted along it

IC50 [1] [nM]	IC50 [2] [nM]	IC50 [3] [nM]	IC50 [4] [nM]	SMILES
100 to 500	≤ 100	≤ 100	≤ 100	Cc1ccc(NC(=O)c2cc(C(C)(C)C)no2)cc1-c1cc(-c2ccnc(NC(=O)C3CC3)c2)cnn1 [Example 367]
1000 to 10000	1000 to 10000	1000 to 10000	1000 to 10000	COC(=O)Nc1cc(-c2cnnc(-c3cc(NC(=O)CC4CCCC4)cnc3C)c2)ccn1 [Example 368]
1000 to 10000	≤ 100	≤ 100	≤ 100	Cc1ccc(NC(=O)c2ccnc(C(C)(C)C#N)c2)cc1-c1cc(-c2ccnc3[nH]ccc23)cnn1 [Example 369]
1000 to 10000	≤ 100	≤ 100	≤ 100	Cc1ccc(NC(=O)C2CCOC(C(C)C)C2)cc1-c1cc(-c2ccnc(NC(=O)C3CC3)c2)cnn1 (stereo not drawn) [Example 370]
100 to 500	100 to 500	100 to 500	≤ 100	CNC(=O)c1cc(-c2cc(-c3cc(NC(=O)c4ccnc(C(C)(C)F)c4)ccc3C)cnc2C)ccn1 [Example 371]
1000 to 10000	1000 to 10000	500 to 1000	100 to 500	Cc1ccc(NC(=O)c2ccnc(C(C)(C)C#N)c2)cc1-c1cc(-c2ccnc(C(=O)NC3CC3)c2)cnn1 [Example 372]
